For orientation: IC50 means the concentration that inhibits the measured activity by half.

Common to all, as to format: biochemical
In one assay the target is T1, PI3K β (Homo sapiens, UniProt P42338).
T1 construct: purchased Upstate
Description: PI 3-Kinase HTRF inhibition assay, PI3K β. Conditions: in vitro. On the procedure:
(§1) Commercial kits or systems for assaying PI3-K activities are available. The commercially available kits or systems can be used to screen for inhibitors and/or agonists of PI3-Ks including but not limited to PI 3-Kinase α, β, δ, and γ. An exemplary system is PI 3-Kinase (human) HTRF™ Assay from Upstate. […] Briefly, the assay is a time resolved FRET assay that indirectly measures PIP3 product formed by the activity of a PI3-K. The kinase reaction is performed in a microtitre plate (e.g., a 384 well microtitre plate). The total reaction volume is approximately 20 ul per well. In the first step, each well receives 2 ul of test compound in 20% dimethylsulphoxide resulting in a 2% DMSO final concentration. Next, approximately 14.5 ul of a kinase/PIP2 mixture (diluted in 1× reaction buffer) is added per well for a final concentration of 0.25-0.3 ug/ml kinase and 10 μM PIP2. The plate is scaled and incubated for 15 minutes at room temperature. To start the reaction, 3.5 ul of ATP (diluted in 1× reaction buffer) is added per well for a final concentration of 10 μM ATP. The plate is sealed and incubated for 1 hour at room temperature. The reaction is stopped by adding 5 ul of Stop Solution per well and then 5 ul of Detection Mix is added per well. The plate is sealed, incubated for 1 hour at room temperature, and then read on an appropriate plate reader. Data is analyzed and IC50s are generated using GraphPad Prism 5. For PI3K α, β, δ, and γ, the nM concentration of inhibitor to reach IC50 is provided. […] Similar assays, and others known in the art, can be used to measure the percent inhibition of other kinases, including but not limited to PI3K class II kinases, phosphoinositide 4 kinases (PI4K), and phosphoinositide 5 kinases (PI5K).
In general terms: TR-FRET usually uses a lanthanide donor and a delayed reading to cut background.

Another assay has as its target T2, PI3K δ (Homo sapiens, UniProt O00329).
T2 construct: purchased Upstate
The assay can be described thus: PI 3-Kinase HTRF inhibition assay, PI3K δ. The procedure:
as §1

For another assay, the target named is T3, PI3K γ (Homo sapiens, UniProt P48736).
T3 construct: purchased Upstate
The assay can be described thus: PI 3-Kinase HTRF inhibition assay, PI3K γ. Conditions: in vitro.

For a further assay, the target named is T4, PI3K α (Homo sapiens, UniProt P42336).
T4 construct: purchased Upstate
The assay can be described thus: PI 3-Kinase HTRF inhibition assay, PI3K α. To be noted: in vitro; read-out: PI3K α IC50. On the procedure: as §1

The mark [1] stands for this setting: in vitro, read-out: PI3K δ IC50.

Where two headings read alike, the source gives them in different places.

T3 sequence (P48736 whole entry): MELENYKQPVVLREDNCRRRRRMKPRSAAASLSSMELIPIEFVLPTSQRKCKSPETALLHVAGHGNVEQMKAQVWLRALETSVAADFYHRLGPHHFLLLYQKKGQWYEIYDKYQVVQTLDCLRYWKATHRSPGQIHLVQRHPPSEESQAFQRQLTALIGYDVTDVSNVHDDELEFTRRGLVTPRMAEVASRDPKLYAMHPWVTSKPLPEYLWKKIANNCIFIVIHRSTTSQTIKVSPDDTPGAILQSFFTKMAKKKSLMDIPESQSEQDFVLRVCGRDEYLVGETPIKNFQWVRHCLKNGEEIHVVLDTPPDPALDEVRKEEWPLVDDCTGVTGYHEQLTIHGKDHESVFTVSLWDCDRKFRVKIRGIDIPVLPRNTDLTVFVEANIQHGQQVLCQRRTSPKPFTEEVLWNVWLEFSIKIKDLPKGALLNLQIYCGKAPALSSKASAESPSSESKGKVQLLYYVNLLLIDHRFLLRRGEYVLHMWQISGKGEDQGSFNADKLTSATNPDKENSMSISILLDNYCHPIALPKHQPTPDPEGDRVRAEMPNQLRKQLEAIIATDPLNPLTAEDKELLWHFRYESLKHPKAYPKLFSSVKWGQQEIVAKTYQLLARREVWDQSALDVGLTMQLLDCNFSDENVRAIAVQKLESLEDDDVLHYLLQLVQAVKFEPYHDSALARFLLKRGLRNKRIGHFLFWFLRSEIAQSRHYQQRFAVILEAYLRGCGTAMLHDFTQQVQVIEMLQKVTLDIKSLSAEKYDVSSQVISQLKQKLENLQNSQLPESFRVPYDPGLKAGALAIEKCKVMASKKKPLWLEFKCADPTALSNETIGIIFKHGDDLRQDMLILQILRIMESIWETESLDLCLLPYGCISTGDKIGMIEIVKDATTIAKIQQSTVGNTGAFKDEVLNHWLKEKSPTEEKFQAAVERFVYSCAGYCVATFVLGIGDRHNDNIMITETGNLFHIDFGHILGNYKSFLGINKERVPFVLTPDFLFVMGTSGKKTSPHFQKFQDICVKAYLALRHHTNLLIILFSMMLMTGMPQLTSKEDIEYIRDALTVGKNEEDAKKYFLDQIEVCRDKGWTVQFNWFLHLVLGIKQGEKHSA
T2 sequence (O00329 whole entry): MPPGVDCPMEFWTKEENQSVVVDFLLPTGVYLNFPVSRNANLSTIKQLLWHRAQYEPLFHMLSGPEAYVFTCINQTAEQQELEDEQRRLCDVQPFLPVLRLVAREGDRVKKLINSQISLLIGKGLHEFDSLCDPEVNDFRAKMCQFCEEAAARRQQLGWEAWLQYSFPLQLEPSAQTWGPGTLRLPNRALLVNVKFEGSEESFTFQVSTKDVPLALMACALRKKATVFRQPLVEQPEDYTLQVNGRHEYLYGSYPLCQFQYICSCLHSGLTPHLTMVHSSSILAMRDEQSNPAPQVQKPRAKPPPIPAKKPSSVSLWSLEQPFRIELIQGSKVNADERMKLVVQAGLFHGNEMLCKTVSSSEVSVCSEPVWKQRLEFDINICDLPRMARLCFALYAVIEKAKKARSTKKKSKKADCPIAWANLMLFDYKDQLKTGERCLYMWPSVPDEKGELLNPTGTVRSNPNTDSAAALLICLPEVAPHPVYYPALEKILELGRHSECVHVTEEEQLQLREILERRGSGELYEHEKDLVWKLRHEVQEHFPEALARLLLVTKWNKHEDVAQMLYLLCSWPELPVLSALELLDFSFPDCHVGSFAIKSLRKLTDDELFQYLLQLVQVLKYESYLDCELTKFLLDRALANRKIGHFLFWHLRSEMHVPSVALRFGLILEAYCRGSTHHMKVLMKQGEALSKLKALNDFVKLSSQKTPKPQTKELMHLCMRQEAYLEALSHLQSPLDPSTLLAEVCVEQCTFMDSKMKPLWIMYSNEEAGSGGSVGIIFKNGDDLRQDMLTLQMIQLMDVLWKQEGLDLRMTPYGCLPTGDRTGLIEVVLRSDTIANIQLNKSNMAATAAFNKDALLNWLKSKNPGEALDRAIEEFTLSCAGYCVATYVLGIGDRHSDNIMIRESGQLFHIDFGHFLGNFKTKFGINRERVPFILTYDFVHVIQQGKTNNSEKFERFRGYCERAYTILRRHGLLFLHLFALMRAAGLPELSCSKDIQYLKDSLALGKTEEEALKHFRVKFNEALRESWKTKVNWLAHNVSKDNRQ
T2 sequence (P27986 whole entry partner): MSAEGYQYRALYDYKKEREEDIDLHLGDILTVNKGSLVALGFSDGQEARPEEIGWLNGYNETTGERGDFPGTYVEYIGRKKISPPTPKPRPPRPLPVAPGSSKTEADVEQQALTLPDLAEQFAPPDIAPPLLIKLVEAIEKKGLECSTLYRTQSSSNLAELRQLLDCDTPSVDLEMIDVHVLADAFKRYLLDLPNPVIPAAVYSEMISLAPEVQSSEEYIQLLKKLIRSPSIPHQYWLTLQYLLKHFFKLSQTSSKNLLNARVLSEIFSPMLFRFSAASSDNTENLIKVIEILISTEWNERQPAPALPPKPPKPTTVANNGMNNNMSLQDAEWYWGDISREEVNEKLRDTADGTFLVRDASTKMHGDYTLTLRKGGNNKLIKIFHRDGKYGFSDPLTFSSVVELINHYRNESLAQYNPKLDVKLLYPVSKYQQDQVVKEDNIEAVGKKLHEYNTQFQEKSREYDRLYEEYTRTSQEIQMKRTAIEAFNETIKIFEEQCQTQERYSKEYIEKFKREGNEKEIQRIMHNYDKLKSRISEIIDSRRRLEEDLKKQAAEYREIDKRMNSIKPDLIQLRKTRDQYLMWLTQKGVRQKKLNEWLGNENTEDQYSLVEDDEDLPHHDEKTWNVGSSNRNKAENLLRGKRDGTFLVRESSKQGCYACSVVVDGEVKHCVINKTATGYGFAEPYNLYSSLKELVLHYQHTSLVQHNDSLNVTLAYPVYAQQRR
T1 sequence (P42338 whole entry): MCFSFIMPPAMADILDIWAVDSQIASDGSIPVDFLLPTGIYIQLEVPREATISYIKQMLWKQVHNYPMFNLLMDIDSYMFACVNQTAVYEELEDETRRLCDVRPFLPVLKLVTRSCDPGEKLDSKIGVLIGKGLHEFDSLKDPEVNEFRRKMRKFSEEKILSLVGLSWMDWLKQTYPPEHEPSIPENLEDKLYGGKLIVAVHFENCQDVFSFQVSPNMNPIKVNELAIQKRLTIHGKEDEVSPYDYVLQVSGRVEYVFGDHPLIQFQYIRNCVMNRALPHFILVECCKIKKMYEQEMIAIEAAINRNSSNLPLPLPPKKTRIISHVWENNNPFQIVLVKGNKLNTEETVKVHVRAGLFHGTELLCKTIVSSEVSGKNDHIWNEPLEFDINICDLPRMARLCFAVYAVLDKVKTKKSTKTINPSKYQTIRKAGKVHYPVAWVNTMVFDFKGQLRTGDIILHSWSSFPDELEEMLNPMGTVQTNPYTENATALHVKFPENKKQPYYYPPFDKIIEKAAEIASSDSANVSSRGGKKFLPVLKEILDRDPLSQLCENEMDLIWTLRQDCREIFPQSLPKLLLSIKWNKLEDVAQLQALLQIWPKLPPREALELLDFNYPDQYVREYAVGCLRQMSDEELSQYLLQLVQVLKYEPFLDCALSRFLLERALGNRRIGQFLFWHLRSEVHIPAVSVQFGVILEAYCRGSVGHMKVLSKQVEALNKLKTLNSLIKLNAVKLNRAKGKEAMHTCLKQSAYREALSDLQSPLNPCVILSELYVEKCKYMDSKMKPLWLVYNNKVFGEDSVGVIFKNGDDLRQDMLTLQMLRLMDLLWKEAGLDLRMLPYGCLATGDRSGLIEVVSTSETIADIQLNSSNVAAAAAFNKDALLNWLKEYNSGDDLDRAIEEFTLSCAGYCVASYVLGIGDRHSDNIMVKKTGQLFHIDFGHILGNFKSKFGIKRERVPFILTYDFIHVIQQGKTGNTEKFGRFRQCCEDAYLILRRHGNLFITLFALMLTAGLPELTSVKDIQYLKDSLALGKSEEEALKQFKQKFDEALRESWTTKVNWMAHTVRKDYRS
T1 sequence (P27986 whole entry partner): as the sequence (P27986 whole entry partner) above
T4 sequence (P42336 whole entry): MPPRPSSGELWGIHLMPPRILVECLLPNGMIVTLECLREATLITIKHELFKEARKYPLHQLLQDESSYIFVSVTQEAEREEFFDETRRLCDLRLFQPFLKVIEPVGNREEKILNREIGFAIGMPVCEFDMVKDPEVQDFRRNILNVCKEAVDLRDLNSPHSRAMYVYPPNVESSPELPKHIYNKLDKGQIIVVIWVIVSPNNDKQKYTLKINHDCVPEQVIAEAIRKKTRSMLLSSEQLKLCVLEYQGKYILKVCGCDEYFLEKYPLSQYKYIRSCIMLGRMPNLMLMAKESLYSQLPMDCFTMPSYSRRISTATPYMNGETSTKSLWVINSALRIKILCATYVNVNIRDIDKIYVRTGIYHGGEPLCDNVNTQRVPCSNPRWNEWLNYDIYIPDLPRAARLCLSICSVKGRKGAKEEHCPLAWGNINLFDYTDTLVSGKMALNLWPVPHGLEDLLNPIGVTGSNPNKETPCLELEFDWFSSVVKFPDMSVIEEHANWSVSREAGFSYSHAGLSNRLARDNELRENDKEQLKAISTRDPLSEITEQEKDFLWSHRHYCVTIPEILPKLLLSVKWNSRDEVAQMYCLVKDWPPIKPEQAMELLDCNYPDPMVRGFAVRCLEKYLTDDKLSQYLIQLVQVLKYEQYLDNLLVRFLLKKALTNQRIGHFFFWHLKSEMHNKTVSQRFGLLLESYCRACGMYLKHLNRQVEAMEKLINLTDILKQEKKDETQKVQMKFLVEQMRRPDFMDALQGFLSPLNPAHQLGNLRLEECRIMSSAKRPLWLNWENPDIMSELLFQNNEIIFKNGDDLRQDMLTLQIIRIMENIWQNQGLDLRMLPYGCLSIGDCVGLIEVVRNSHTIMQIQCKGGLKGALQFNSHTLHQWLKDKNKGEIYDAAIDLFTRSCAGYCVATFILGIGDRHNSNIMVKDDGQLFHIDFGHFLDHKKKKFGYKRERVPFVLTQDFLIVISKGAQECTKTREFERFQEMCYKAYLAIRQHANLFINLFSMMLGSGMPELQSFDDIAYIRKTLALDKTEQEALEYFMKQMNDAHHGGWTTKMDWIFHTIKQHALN
T4 sequence (P27986 whole entry partner): as the sequence (P27986 whole entry partner) above

`NCC(=O)N1CCN(c2cnc3ccc(-c4ccc5oc(N)nc5c4)nc3n2)CC1` [Compound 33]: the IC50 against PI3K β is less than 10 µM; on PI3K δ (setting [1]) it was less than 10 µM; against PI3K γ it was less than 10 µM; on PI3K α, less than 0.1 µM.
For the compound `Nc1nc2cc(-c3ccc4ncc(N5CC(N6CCNCC6)C5)nc4n3)ccc2o1` [Compound 34], the IC50 against PI3K β was greater than 10 µM; at PI3K δ (setting [1]), greater than 10 µM; against PI3K γ it was greater than 10 µM; on PI3K α it was less than 1 µM.
As for `Nc1nc2cc(-c3ccc4ncc(N5CC(N6CCN(CC7CC7)CC6)C5)nc4n3)ccc2o1` [Compound 35], the IC50 was less than 10 µM at PI3K β, less than 10 µM at PI3K δ (setting [1]), less than 10 µM against PI3K γ and less than 0.1 µM at PI3K α.
As for `CCOC(=O)N1CCN(c2cnc3ccc(-c4ccc5oc(N)nc5c4)nc3c2)CC1` [Compound 36], the IC50 is less than 10 µM against PI3K β, greater than 10 µM on PI3K δ (setting [1]), less than 0.1 µM against PI3K γ and less than 0.1 µM at PI3K α.
`NCC(=O)N1CCN(c2cnc3ccc(-c4ccc5oc(N)nc5c4)nc3c2)CC1` [Compound 37]: the IC50 on PI3K β was less than 1 µM; at PI3K δ (setting [1]) it was less than 1 µM; at PI3K γ, less than 1 µM; at PI3K α, less than 0.1 µM.
Turning to `C[C@H](N)C(=O)N1CCN(c2cnc3ccc(-c4ccc5oc(N)nc5c4)nc3c2)CC1` [Compound 38], the IC50 against PI3K β was less than 1 µM; at PI3K δ (setting [1]), less than 1 µM; against PI3K γ it was less than 1 µM; at PI3K α, less than 0.1 µM.
As for `C[C@@H](N)C(=O)N1CCN(c2cnc3ccc(-c4ccc5oc(N)nc5c4)nc3c2)CC1` [Compound 39], the IC50 is less than 0.1 µM against PI3K β, less than 1 µM at PI3K δ (setting [1]), less than 1 µM on PI3K γ and less than 0.1 µM on PI3K α.
As for `CC(C)(N)C(=O)N1CCN(c2cnc3ccc(-c4ccc5oc(N)nc5c4)nc3n2)CC1` [Compound 40], the IC50 was less than 10 µM against PI3K β, less than 10 µM on PI3K δ (setting [1]), less than 10 µM against PI3K γ and less than 0.1 µM on PI3K α.
Take `Nc1nc2cc(-c3ccc4ncc(N5CCN(C(=O)C6(N)CC6)CC5)cc4n3)ccc2o1` [Compound 42]: the IC50 at PI3K β is less than 1 µM; at PI3K δ (setting [1]) it was less than 1 µM; against PI3K γ, less than 0.1 µM; at PI3K α, less than 0.1 µM.
For `CC(C)N1CCN(c2cnc3ccc(-c4ccc5oc(N)nc5c4)nc3c2)CC1` [Compound 44], the IC50 was less than 1 µM against PI3K β, less than 1 µM at PI3K δ (setting [1]), less than 1 µM against PI3K γ and less than 0.1 µM at PI3K α.
For `Nc1nc2cc(-c3ccc4ncc(N5CCC(O)CC5)nc4n3)ccc2o1` [Compound 45], the IC50 was less than 10 µM against PI3K β, greater than 10 µM on PI3K δ (setting [1]), less than 0.1 µM against PI3K γ and less than 0.1 µM on PI3K α.
For `Nc1nc2cc(-c3ccc4ncc(N5CC(N6CCN(CCO)CC6)C5)nc4n3)ccc2o1` [Compound 46], the IC50 at PI3K β is less than 10 µM; on PI3K δ (setting [1]), less than 10 µM; against PI3K γ it was less than 10 µM; on PI3K α it was less than 0.1 µM.
`C[C@H]1CN(c2cnc3ccc(-c4ccc5oc(N)nc5c4)nc3c2)CCN1` [Compound 47]: the IC50 is less than 0.1 µM on PI3K β, less than 10 µM on PI3K δ (setting [1]), less than 1 µM at PI3K γ and less than 0.1 µM on PI3K α.
Consider `C[C@@H]1CN(c2cnc3ccc(-c4ccc5oc(N)nc5c4)nc3c2)CCN1` [Compound 48], for which the IC50 at PI3K β was less than 1 µM; at PI3K δ (setting [1]) it was less than 10 µM; against PI3K γ, less than 10 µM; on PI3K α it was less than 0.1 µM.
For `C[C@@H]1COCCN1C1CN(c2cnc3ccc(-c4ccc5oc(N)nc5c4)nc3n2)C1` [Compound 49], the concentration for half-maximal inhibition (IC50) on PI3K β is greater than 10 µM; on PI3K δ (setting [1]), greater than 10 µM; against PI3K γ, less than 10 µM; at PI3K α, less than 10 µM.
For `Cc1nccn1C1CN(c2cnc3ccc(-c4ccc5oc(N)nc5c4)nc3n2)C1` [Compound 50], the IC50 against PI3K β is less than 10 µM; on PI3K δ (setting [1]) it was less than 10 µM; against PI3K γ, less than 10 µM; on PI3K α it was less than 0.1 µM.
Consider `Nc1nc2cc(-c3ccc4ncc(N5CC(N6C7CCC6COC7)C5)nc4n3)ccc2o1` [Compound 51], for which the IC50 was greater than 10 µM against PI3K β, greater than 10 µM on PI3K δ (setting [1]), greater than 10 µM against PI3K γ and less than 10 µM on PI3K α.
Consider `CC1(C)CN(C2CN(c3cnc4ccc(-c5ccc6oc(N)nc6c5)nc4n3)C2)CCN1` [Compound 52], for which the IC50 against PI3K β is less than 10 µM; at PI3K δ (setting [1]), less than 1 µM; on PI3K γ, less than 10 µM; at PI3K α, less than 0.1 µM.
With `Nc1nc2cc(-c3ccc4ncc(N5CC(N6CCOCC6)C5)cc4n3)ccc2o1` [Compound 53], the concentration for half-maximal inhibition (IC50) was less than 10 µM against PI3K β, less than 10 µM on PI3K δ (setting [1]), less than 1 µM against PI3K γ and less than 0.1 µM on PI3K α.
Take `C[C@H]1CN(C2CN(c3cnc4ccc(-c5ccc6oc(N)nc6c5)nc4c3)C2)CCN1` [Compound 54]: the IC50 against PI3K β is less than 10 µM; at PI3K δ (setting [1]), less than 1 µM; on PI3K γ it was less than 10 µM; on PI3K α, less than 0.1 µM.
Consider `C[C@H]1CN(C2CN(c3cnc4ccc(-c5ccc6oc(N)nc6c5)nc4c3)C2)CCN1C` [Compound 55], for which the IC50 against PI3K β was less than 10 µM; on PI3K δ (setting [1]) it was less than 1 µM; against PI3K γ it was less than 10 µM; at PI3K α it was less than 0.1 µM.
On to `C[C@@H]1CN(C2CN(c3cnc4ccc(-c5ccc6oc(N)nc6c5)nc4c3)C2)CCN1` [Compound 56], for which the IC50 was less than 10 µM against PI3K β, less than 1 µM on PI3K δ (setting [1]), less than 1 µM on PI3K γ and less than 0.1 µM on PI3K α.
As for `C[C@@H]1CN(C2CN(c3cnc4ccc(-c5ccc6oc(N)nc6c5)nc4c3)C2)CCN1C` [Compound 57], the IC50 on PI3K β is less than 10 µM; at PI3K δ (setting [1]) it was less than 1 µM; against PI3K γ it was less than 10 µM; at PI3K α, less than 0.1 µM.
`CC1(C)CN(C2CN(c3cnc4ccc(-c5ccc6oc(N)nc6c5)nc4c3)C2)CCN1` [Compound 58]: the IC50 against PI3K β was less than 10 µM; at PI3K δ (setting [1]), less than 1 µM; at PI3K γ, less than 1 µM; at PI3K α it was less than 0.1 µM.
Turning to `Nc1nc2cc(-c3ccc4ncc(N5CC6CCC(C5)O6)cc4n3)ccc2o1` [Compound 59], the IC50 at PI3K β was greater than 10 µM; at PI3K δ (setting [1]) it was greater than 10 µM; on PI3K γ, less than 0.1 µM; at PI3K α, less than 0.1 µM.
For the compound `Nc1nc2cc(-c3ccc4ncc(N5CC(N6CCN(CC7CC7)CC6)C5)cc4n3)ccc2o1` [Compound 60], the 50% inhibitory concentration (IC50) against PI3K β was less than 10 µM; on PI3K δ (setting [1]), less than 1 µM; at PI3K γ it was less than 10 µM; on PI3K α, less than 0.1 µM.
Turning to `C[C@H]1COCCN1C1CN(c2cnc3ccc(-c4ccc5oc(N)nc5c4)nc3n2)C1` [Compound 61], the IC50 on PI3K β is greater than 10 µM; at PI3K δ (setting [1]) it was less than 10 µM; at PI3K γ, less than 10 µM; at PI3K α it was less than 0.1 µM.
For `Nc1nc2cc(-c3ccc4ncc(N5CCC(O)CC5)cc4n3)ccc2o1` [Compound 62], the IC50 was less than 10 µM against PI3K β, less than 10 µM on PI3K δ (setting [1]), less than 1 µM against PI3K γ and less than 0.1 µM at PI3K α.
For `Cc1nccn1C1CN(c2cnc3ccc(-c4ccc5oc(N)nc5c4)nc3c2)C1` [Compound 63], the IC50 was less than 10 µM against PI3K β, less than 1 µM on PI3K δ (setting [1]), less than 0.1 µM against PI3K γ and less than 0.1 µM at PI3K α.
Take `CN1CCN(C2CN(c3cnc4ccc(-c5ccc6oc(N)nc6c5)nc4c3)C2)CC1=O` [Compound 64]: the IC50 against PI3K β was less than 10 µM; at PI3K δ (setting [1]) it was less than 1 µM; on PI3K γ it was less than 0.1 µM; at PI3K α it was less than 0.1 µM.
With `Nc1nc2cc(-c3ccc4ncc(N5CC(N6CCN(CCO)CC6)C5)cc4n3)ccc2o1` [Compound 65], the IC50 on PI3K β was less than 10 µM; at PI3K δ (setting [1]), less than 1 µM; on PI3K γ it was less than 1 µM; on PI3K α it was less than 0.1 µM.
As to `C[C@@H]1COCCN1C1CN(c2cnc3ccc(-c4ccc5oc(N)nc5c4)nc3c2)C1` [Compound 66], the IC50 on PI3K β was less than 10 µM; on PI3K δ (setting [1]), less than 1 µM; against PI3K γ, less than 0.1 µM; at PI3K α it was less than 0.1 µM.
On to `Nc1nc2cc(-c3ccc4ncc(N5CC(N6C7CCC6COC7)C5)cc4n3)ccc2o1` [Compound 67], for which the IC50 is greater than 10 µM on PI3K β, less than 10 µM at PI3K δ, less than 1 µM at PI3K γ and less than 0.1 µM on PI3K α.
With `C[C@H]1COCCN1C1CN(c2cnc3ccc(-c4ccc5oc(N)nc5c4)nc3c2)C1` [Compound 68], the IC50 against PI3K β was greater than 10 µM; at PI3K δ (setting [1]), greater than 10 µM; at PI3K γ, less than 10 µM; at PI3K α, less than 0.1 µM.

(Values after patent US9359352B2, “Substituted benzimidazoles as PI3 kinase inhibitors” (Intellikine LLC, priority 2010, dated 2016).)
